According to patent US12344614B2, “Benzodiazepine derivatives as GABA a GAMMA1 PAM” (Hoffmann-La Roche Inc., priority 2021, dated 2025):
Where two headings read alike, the source gives them in different places.

What was measured:
[1] = molecular target: human GABAA α5β2γ1 receptor (Homo sapiens (Human), UniProt P31644+Q8N1C3); assay: Radioligand binding assay, competition for [3H]RO7239181, membranes from HEK293F cells
Protocol: The affinity of compounds at GABAA γ1 subunit-containing receptors was measured by competition for [^3H]RO7239181 (67.3 Ci/mmol; Roche) binding to membranes from HEK293F cells (ThermoFisher R79007) expressing human (transiently transfected) receptors of composition α5β2γ1, α2β2γ1, α1β2γ1. For better protein expression of the α2 subunit-containing receptors, the 28 amino acid long signal peptide (Met1 to Ala28) of the human GABAA α2 subunit was substituted by the 31 amino acid long signal peptide (Met1 to Ser31) of human GABAA α5 subunit.
(§1) Harvested pellets from HEK293F cells expressing the different GABAA receptor subtypes were resuspended in Mannitol Buffer pH 7.2-7.4 (Mannitol 0.29M, Triethylamine 10 mM, Acetic acid 10 mM, EDTA 1 mM plus protease inhibitors (20 tablets Complete, Roche Diagnostics Cat. No. 05 056 489 001 per liter)), washed two times and then resuspended at 1:10 to 1:15 dilution in the same buffer. Cell disruption was performed by stirring the suspension in a Parr vessel #4637 at 435 psi for 15 minutes, and then the suspensions were centrifuged at 1000×g for 15 minutes at 4° C. (Beckman Avanti J-HC; rotor JS-4.2). The supernatant (S1) was transferred in a 21 Schott flask and the pellet (P1) was resuspended with Mannitol Buffer up to 175 ml. The resuspended pellet was transferred into a 250 ml Corning centrifugal beaker and centrifuged at 1500×g for 10 minutes at 4° C. (Beckman Avanti J-HC; rotor JS-4.2). The supernatant (S1) was then transferred in the 21 Schott flask and the pellet was discarded. The supernatants (S1) were centrifuged in 500 ml Beckman polypropylene centrifugal beaker at 15′000×g for 30 minutes at 4° C. (Beckman Avanti J-20 XP; rotor JLA-10.500). The pellet (P2) was resuspended with Mannitol Buffer 1:1 and frozen at −80° C. The supernatant (S2) was centrifuged in 100 ml Beckman polypropylene centrifugal tubes at 48000×g for 50 minutes at 4° C. (Beckman Avanti J-20 XP; rotor JA-18). The supernatant (S3) was discarded and the pellet (P3) was resuspended with 1:1 Mannitol Buffer. The P2 and P3 protein concentration was determined with the BIORAD Standard assay method with bovine serum albumin as standard and measured on the NANO-Drop 1000. The membrane suspension was aliquots (500 μl per tube) and stored at −80° C. until required.
(§2) Membrane homogenates were resuspended and polytronised (Polytron PT1200E Kinematica AG) in Potassium Phosphate 10 mM, KCl 100 mM binding buffer at pH 7.4 to a final assay concentration determined with a previous experiment.
Radioligand binding assays were carried out in a volume of 200 μL (96-well plates) which contained 100 μL of cell membranes, [^3H]RO7239181 at a concentration of 1.5 nM (α5β2γ1) or 20-30 nM (α1β2γ1, α2β2γ1) and the test compound in the range of [0.3-10000]×10^−9 M. Nonspecific binding was defined by 10×10^−6 (α5β2γ1) and 30×10^−6 M RO7239181 and typically represented less than 5% (α5β2γ1) and less than 20% (α1β2γ1, α2β2γ1) of the total binding. Assays were incubated to equilibrium for 1 hour at 4° C. and then, membranes were filtered onto unifilter (96-well white microplate with bonded GF/C filters preincubated 20-50 minutes in 0.3% Polyethylenimine) with a Filtermate 196 harvester (Packard BioScience) and washed 4 times with cold Potassium Phosphate 10 mM pH 7.4, KCl 100 mM binding buffer. After anhydrousing, filter-retained radioactivity was detected by liquid scintillation counting. Ki values were calculated using Excel-Fit (Microsoft) and are the means of two determinations.
Representative test results, obtained by the above described assay measuring binding affinity to HEK293 cells expressing human (h) receptors, are shown in the Table 1.

[2] = molecular target: human GABAA α2β2γ1 receptor (Homo sapiens (Human), UniProt P47869+Q8N1C3); assay: as above
Protocol: The affinity of compounds at GABAA γ1 subunit-containing receptors was measured by competition for [^3H]RO7239181 (67.3 Ci/mmol; Roche) binding to membranes from HEK293F cells (ThermoFisher R79007) expressing human (transiently transfected) receptors of composition α5β2γ1, α2β2γ1, α1β2γ1.
as §1, §2
Assays were incubated to equilibrium for 1 hour at 4° C. and then, membranes were filtered onto unifilter (96-well white microplate with bonded GF/C filters preincubated 20-50 minutes in 0.3% Polyethylenimine) with a Filtermate 196 harvester (Packard BioScience) and washed 4 times with cold Potassium Phosphate 10 mM pH 7.4, KCl 100 mM binding buffer. After anhydrousing, filter-retained radioactivity was detected by liquid scintillation counting. Ki values were calculated using Excel-Fit (Microsoft) and are the means of two determinations.

[3] = read-out: Ki h-GABAA α2β2γ1, [3H]RO7239181 20-30 nM, HEK293F membranes, 1 hour at 4° C., mean of two determinations

SMILES | Ki [1] | Ki [2] | Ki [2, 3]
COC1CN(C(=O)c2nc3n(n2)-c2ccc(Cl)c(Cl)c2C(c2cc(O)ccc2F)=NC3)C1 [Example 7, [7,8-dichloro-6-(2-fluoro-5-hydroxy-phenyl)-4H-[1,2,4]triazolo[1,5-a][1,4]benzodiazepin-2-yl]-(3-methoxyazetidin-1-yl)methanone] | 1.4 nM | 2.22 nM | 2.22 nM
Cc1nnc2n1-c1ccc(Cl)c(Cl)c1C(c1c(F)ccc(O)c1F)=NC2 [Example 13, 3-(7,8-dichloro-1-methyl-4H-[1,2,4]triazolo[4,3-a][1,4]benzodiazepin-6-yl)-2,4-difluoro-phenol] | 0.4 nM | 3.85 nM | 3.85 nM
O=c1ccn2c(n1)CN=C(c1cc(O)ccc1F)c1c-2ccc(Cl)c1Cl [Example 6, 8,9-dichloro-7-(2-fluoro-5-hydroxy-phenyl)-5H-pyrimido[1,2-a][1,4]benzodiazepin-3-one] | 0.39 nM | 2.18 nM | 2.18 nM
Cc1cn2c(n1)[C@H](C)N=C(c1nc(O)ccc1F)c1c-2ccc(C(F)(F)F)c1Cl [Example 28, 6-[(4S)-7-chloro-2,4-dimethyl-8-(trifluoromethyl)-4H-imidazo[1,2-a][1,4]benzodiazepin-6-yl]-5-fluoro-pyridin-2-ol] | 2.07 nM | 5.28 nM | 5.28 nM
Cc1nnc2n1-c1ccc(Cl)c(Cl)c1C(c1cc(O)ccc1F)=N[C@H]2C [Example 4, 4-fluoro-3-[(4S)-7,8-dichloro-1,4-dimethyl-4H-[1,2,4]triazolo[4,3-a][1,4]benzodiazepin-6-yl]phenol] | 0.38 nM | 1.99 nM | 1.99 nM
CN1C(=O)CN=C(c2cc(O)ccc2F)c2c1ccc(Cl)c2Cl [Example 1, 6,7-dichloro-5-(2-fluoro-5-hydroxy-phenyl)-1-methyl-3H-1,4-benzodiazepin-2-one] | 0.34 nM | 2.27 nM | 2.27 nM
Cc1nnc2n1-c1ccc(Cl)c(Cl)c1C(c1cc(O)ccc1F)=NC2 [Example 3, 3-(7,8-dichloro-1-methyl-4H-[1,2,4]triazolo[4,3-a][1,4]benzodiazepin-6-yl)-4-fluoro-phenol] | 0.36 nM | 1.45 nM | 1.45 nM
Cc1ccc2c(c1Cl)C(c1cc(O)ccc1F)=NCC(=O)N2C [Example 2, 6-chloro-5-(2-fluoro-5-hydroxy-phenyl)-1,7-dimethyl-3H-1,4-benzodiazepin-2-one] | 0.53 nM | 1.49 nM | 1.49 nM
Cc1nnc2n1-c1ccc(C(F)(F)F)c(Cl)c1C(c1cc(O)ccc1F)=N[C@H]2C [Example 17, 4-fluoro-3-[(4S)-7-chloro-1,4-dimethyl-8-(trifluoromethyl)-4H-[1,2,4]triazolo[4,3-a][1,4]benzodiazepin-6-yl]phenol] | 0.99 nM | 1.75 nM | 1.75 nM
C[C@@H]1N=C(c2nc(O)ccc2F)c2c(ccc(C(F)(F)F)c2Cl)-n2cc(C(=O)N3CCC3)nc21 [Example 30, azetidin-1-yl-[(4S)-7-chloro-6-(3-fluoro-6-hydroxy-2-pyridyl)-4-methyl-8-(trifluoromethyl)-4H-imidazo[1,2-a][1,4]benzodiazepin-2-yl]methanone] | 8.77 nM | 46.3 nM | 46.3 nM
Cc1nc2n(n1)-c1ccc(C(F)(F)F)c(Cl)c1C(c1nc(O)ccc1Cl)=N[C@H]2C [Example 29, 5-chloro-6-[(4S)-7-chloro-2,4-dimethyl-8-(trifluoromethyl)-4H-[1,2,4]triazolo[1,5-a][1,4]benzodiazepin-6-yl]pyridin-2-ol] | 3.63 nM | 7.7 nM | 7.7 nM
O=c1ccn2c(n1)CN=C(c1c(F)ccc(O)c1F)c1c-2ccc(Cl)c1Cl [Example 14, 8,9-dichloro-7-(2,6-difluoro-3-hydroxy-phenyl)-5H-pyrimido[1,2-a][1,4]benzodiazepin-3-one] | 0.85 nM | 4.67 nM | 4.67 nM
Cc1nnc2n1-c1ccc(C(F)(F)F)c(Cl)c1C(c1nc(O)ccc1F)=N[C@H]2C [Example 20, 6-[(4S)-7-chloro-1,4-dimethyl-8-(trifluoromethyl)-4H-[1,2,4]triazolo[4,3-a][1,4]benzodiazepin-6-yl]-5-fluoro-pyridin-2-ol] | 5.02 nM | 40.1 nM | 40.1 nM
O=c1ccn2c(n1)CN=C(c1cc(O)ccc1F)c1c-2ccc(C(F)(F)F)c1Cl [Example 11, 8-chloro-7-(2-fluoro-5-hydroxy-phenyl)-9-(trifluoromethyl)-5H-pyrimido[1,2-a][1,4]benzodiazepin-3-one] | 1.54 nM | 1.88 nM | 1.88 nM
Cc1cnc2n1-c1ccc(C(F)(F)F)c(Cl)c1C(c1nc(O)ccc1Cl)=N[C@H]2C [Example 26, 5-chloro-6-[(4S)-7-chloro-1,4-dimethyl-8-(trifluoromethyl)-4H-imidazo[1,2-a][1,4]benzodiazepin-6-yl]pyridin-2-ol] | 3.25 nM | 7.88 nM | 7.88 nM
COC1CN(C(=O)c2ncn3c2CN=C(c2cc(O)ccc2F)c2c-3ccc(C(F)(F)F)c2Cl)C1 [Example 15, [7-chloro-6-(2-fluoro-5-hydroxy-phenyl)-8-(trifluoromethyl)-4H-imidazo[1,5-a][1,4]benzodiazepin-3-yl]-(3-methoxyazetidin-1-yl)methanone] | 0.85 nM | 4.18 nM | 4.18 nM
Cc1cnc2n1-c1ccc(C(F)(F)F)c(Cl)c1C(c1nc(O)ccc1F)=N[C@H]2C [Example 23, 6-[(4S)-7-chloro-1,4-dimethyl-8-(trifluoromethyl)-4H-imidazo[1,2-a][1,4]benzodiazepin-6-yl]-5-fluoro-pyridin-2-ol] | 3.08 nM | 8.88 nM | 8.88 nM
Cc1nc2n(n1)-c1ccc(C(F)(F)F)c(Cl)c1C(c1nc(O)ccc1F)=N[C@H]2C [Example 25, 6-[(4S)-7-chloro-2,4-dimethyl-8-(trifluoromethyl)-4H-[1,2,4]triazolo[1,5-a][1,4]benzodiazepin-6-yl]-5-fluoro-pyridin-2-ol] | 2.32 nM | 10.9 nM | 10.9 nM
Cc1nnc2n1-c1ccc(C(F)(F)F)c(Cl)c1C(c1nc(O)ccc1Cl)=N[C@H]2C [Example 22, 5-chloro-6-[(4S)-7-chloro-1,4-dimethyl-8-(trifluoromethyl)-4H-[1,2,4]triazolo[4,3-a][1,4]benzodiazepin-6-yl]pyridin-2-ol] | 20.9 nM | 13.7 nM | 13.7 nM
CN1C(=O)CN=C(c2cc(O)ccc2F)c2c1ccc(C(F)(F)F)c2Cl [Example 8, 6-chloro-5-(2-fluoro-5-hydroxy-phenyl)-1-methyl-7-(trifluoromethyl)-3H-1,4-benzodiazepin-2-one] | 0.44 nM | 2.35 nM | 2.35 nM
